Test results from patent publication US9174969B2, “Indoline scaffold SHP-2 inhibitors and cancer treatment method” (UNIVERSITY OF SOUTH FLORIDA, priority 2008, dated 2015).

Biological target: T1, Shp2 (Homo sapiens (Human), UniProt Q06124)
Assay: in vitro phosphotyrosine phosphatase activity (DiFMUP) assay
Type: biochemical
Details: mean ± spread over n tests
Description: All reagents were purchased from commercial suppliers and used without further purification. Melting points were determined using a Barnstead international melting point apparatus and remain uncorrected. ^1H NMR spectra were recorded on a Varian Mercury 400 MHz spectrometer with CDCl3 or DMSO-d6 as the solvent. ^13C NMR spectra are recorded at 100 MHz. All coupling constants are measured in Hertz (Hz) and the chemical shifts (δH and δC) are quoted in parts per million (ppm) relative to TMS (δ0), which was used as the internal standard. High resolution mass spectroscopy was carried out on an Agilent 6210 LC/MS (ESI-TOF). Microwave reactions were performed in CEM 908005 model and Biotage initiator 8 machines. HPLC analysis was performed using a JASCO HPLC system equipped with a PU-2089 Plus quaternary gradient pump and a UV-2075 Plus UV-VIS detector, using an Alitech Kromasil C-18 column (150×4.6 mm, 5 μm). Thin layer chromatography was performed using silica gel 60 F254 plates (Fisher), with observation under UV when necessary. Anhydrous solvents (acetonitrile, dimethyl formamide, ethanol, isopropanol, methanol and tetrahydrofuran) were used as purchased from Aldrich. HPLC grade solvents (methanol, acetonitrile and water) were purchased from Burdick and Jackson for HPLC and mass analysis.
Target sequence in this assay (Q06124 whole entry): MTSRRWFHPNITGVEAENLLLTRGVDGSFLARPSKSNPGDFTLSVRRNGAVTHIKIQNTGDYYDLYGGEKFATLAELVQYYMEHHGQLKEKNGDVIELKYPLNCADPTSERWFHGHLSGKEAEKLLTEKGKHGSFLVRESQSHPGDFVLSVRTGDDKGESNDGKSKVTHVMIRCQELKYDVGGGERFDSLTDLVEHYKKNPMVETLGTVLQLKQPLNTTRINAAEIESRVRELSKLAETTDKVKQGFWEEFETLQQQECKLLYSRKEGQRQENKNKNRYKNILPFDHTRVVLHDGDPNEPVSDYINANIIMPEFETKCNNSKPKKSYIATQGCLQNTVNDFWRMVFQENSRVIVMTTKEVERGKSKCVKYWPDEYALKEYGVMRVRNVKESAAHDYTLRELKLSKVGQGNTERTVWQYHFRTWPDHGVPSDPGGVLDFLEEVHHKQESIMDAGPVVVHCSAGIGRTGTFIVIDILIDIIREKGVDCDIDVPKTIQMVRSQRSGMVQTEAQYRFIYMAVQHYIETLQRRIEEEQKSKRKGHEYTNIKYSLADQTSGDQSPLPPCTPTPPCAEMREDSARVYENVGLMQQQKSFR

In order of falling IC50:
1. O=C(O)CCC(=O)N1CCc2cc(S(=O)(=O)N3CCN(c4cccc(Cl)c4Cl)CC3)ccc21 [XW2-038G, 4-(5-(4-(2,3-Dichlorophenyl)piperazin-1-ylsulfonyl)indolin-1-yl)-4-oxobutanoic acid]  144 ± 89.5 µM
2. O=C(O)CC[C@H](NC(=O)N1CCc2cc(S(=O)(=O)N3CCN(c4cccc(Cl)c4)CC3)ccc21)C(=O)O [JHE-02-052, (S)-2-(5-(4-(3-Chlorophenyl)piperazin-1-ylsulfonyl)indoline-1-carboxamido)pentanedioic acid]  37.6 ± 13.8 µM
3. O=C(Cc1ccccc1)N1CCc2cc(S(=O)(=O)N3CCN(c4cccc(Cl)c4)CC3)ccc21 [JF031, 1-(5-(4-(3-Chlorophenyl)piperazin-1-ylsulfonyl)indolin-1-yl)-2-phenyleth anone]  22.8 ± 4.5 µM
4. CCC(C)C(NC(=O)N1CCc2cc(S(=O)(=O)N3CCN(c4cccc(Cl)c4)CC3)ccc21)C(=O)O (centres unmarked) [JHE-02-038, 2-(5-(4-(3-Chlorophenyl)piperazin-1-ylsulfonyl)indoline-1-carboxamido)-3-methylpentanoic acid]  15.5 ± 7.5 µM
5. COC(=O)c1ccccc1NC(=O)N1CCc2cc(S(=O)(=O)N3CCN(c4cccc(Cl)c4)CC3)ccc21 [JHE-02-015A, Methyl 2-(5-(4-(3-chlorophenyl)piperazin-1-ylsulfonyl)indoline-1-carboxamido)benzoate]  14.3 ± 4.1 µM
6. CCC(C)C(NC(=O)N1CCc2cc(S(=O)(=O)N3CCN(c4cccc(Cl)c4)CC3)ccc21)C(=O)OC (centres unmarked) [JHE-02-029A, Methyl 2-(5-(4-(3-chlorophenyl)piperazin-1-ylsulfonyl)indoline-1-carboxamido)-3-methylpentanoate]  12.7 ± 0.7 µM
7. O=C(Nc1ccc(F)cc1)N1CCc2cc(S(=O)(=O)N3CCN(c4cccc(Cl)c4)CC3)ccc21 [JF038, 5-(4-(3-Chlorophenyl)piperazin-1-ylsulfonyl)-N-(4-fluorophenyl)indoline-1-carboxamide]  12.6 ± 5.4 µM
8. O=C(Nc1ccccc1)N1CCc2cc(S(=O)(=O)N3CCN(c4cccc(Cl)c4)CC3)ccc21 [JF033, 5-(4-(3-Chlorophenyl)piperazin-1-ylsulfonyl)-N-phenylindoline-1-carboxamide]  11.7 ± 1.4 µM
9. COCC(=O)N1CCc2cc(S(=O)(=O)N3CCN(c4cccc(Cl)c4)CC3)ccc21 [JHE-01-169, 1-(5-(4-(3-Chlorophenyl)piperazin-1-ylsulfonyl)indolin-1-yl)-2-methoxyethanone]  9.6 ± 2.4 µM
10. CCOC(=O)CCNC(=O)N1CCc2cc(S(=O)(=O)N3CCN(c4cccc(Cl)c4)CC3)ccc21 [JHE-02-010A, Ethyl 3-(5-(4-(3-chlorophenyl)piperazin-1-ylsulfonyl)indoline-1-carboxamido)propanoate]  9.3 ± 2.2 µM
11. O=C(c1ccccc1)N1CCc2cc(S(=O)(=O)N3CCN(c4cccc(Cl)c4)CC3)ccc21 [JF022, (5-(4-(3-Chlorophenyl)piperazin-1-ylsulfonyl)indolin-1-yl)(phenyl)methanone]  8.4 ± 2.3 µM
12. O=C(Nc1cccc(Cl)c1)N1CCc2cc(S(=O)(=O)N3CCN(c4cccc(Cl)c4)CC3)ccc21 [JHE-02-032A, N-(3-Chlorophenyl)-5-(4-(3-chlorophenyl)piperazin-1-ylsulfonyl)indoline-1-carboxamide]  8.3 ± 3.4 µM
13. O=C(c1cc(Cl)cc(Cl)c1)N1CCc2cc(S(=O)(=O)N3CCN(c4cccc(Cl)c4)CC3)ccc21 [JF025, (5-(4-(3-Chlorophenyl)piperazin-1-ylsulfonyl)indolin-1-yl)(3,5-dichlorophenyl)methanone]  8.2 ± 2.6 µM
14. COc1cccc(C(=O)N2CCc3cc(S(=O)(=O)N4CCN(c5cccc(Cl)c5)CC4)ccc32)c1 [JHE-02-035A, (5-(4-(3-chlorophenyl)piperazin-1-ylsulfonyl)indolin-1-yl)(3-methoxyphenyl)methanone]  8.1 ± 0.8 µM
15. CCOC(=O)C(NC(=O)N1CCc2cc(S(=O)(=O)N3CCN(c4cccc(Cl)c4)CC3)ccc21)C(C)C (centres unmarked) [JHE-02-010C, Ethyl 2-(5-(4-(3-chlorophenyl)piperazin-1-ylsulfonyl)indoline-1-carboxamido)-3-methylbutanoate]  7.7 ± 2.4 µM
16. O=C(c1ccc(Cl)cc1Cl)N1CCc2cc(S(=O)(=O)N3CCN(c4cccc(Cl)c4)CC3)ccc21 [JF024, (5-(4-(3-Chlorophenyl)piperazin-1-ylsulfonyl)indolin-1-yl)(2,4-dichlorophenyl)methanone]  7.6 ± 1.3 µM
17. COc1ccc(C(=O)N2CCc3cc(S(=O)(=O)N4CCN(c5cccc(Cl)c5)CC4)ccc32)cc1 [JF028, (5-(4-(3-Chlorophenyl)piperazin-1-ylsulfonyl)indolin-1-yl)(4-methoxyphenyl)methanone]  6.3 ± 2.9 µM
18. O=C(Nc1ccc(Cl)c(Cl)c1)N1CCc2cc(S(=O)(=O)N3CCN(c4cccc(Cl)c4)CC3)ccc21 [JHE-02-068A, 5-(4-(3-Chlorophenyl)piperazin-1-ylsulfonyl)-N-(3,4-dichlorophenyl)indoline-1-carboxamide]  5.7 ± 2.5 µM
19. O=C(c1cccc(Cl)c1)N1CCc2cc(S(=O)(=O)N3CCN(c4cccc(Cl)c4)CC3)ccc21 [JF020, (3-Chlorophenyl)(5-(4-(3-chlorophenyl)piperazin-1-ylsulfonyl)indolin-1-yl)methanone]  5.7 ± 3.9 µM
20. O=C(O)C(Cc1ccccc1)NC(=O)N1CCc2cc(S(=O)(=O)N3CCN(c4cccc(Cl)c4)CC3)ccc21 (centres unmarked) [JHE-02-019B, 2-(5-(4-(3-Chlorophenyl)piperazin-1-ylsulfonyl)indoline-1-carboxamido)-3-phenylpropanoic acid]  5.4 ± 2.7 µM
21. O=C(O)CCNC(=O)N1CCc2cc(S(=O)(=O)N3CCN(c4cccc(Cl)c4)CC3)ccc21 [JHE-02-017A, 3-(5-(4-(3-Chlorophenyl)piperazin-1-ylsulfonyl)indoline-1-carboxamido)propanoic acid]  4.8 ± 3.3 µM
22. O=C(O)C(=O)N1CCc2cc(S(=O)(=O)N3CCN(c4cccc(Cl)c4)CC3)ccc21 [JHE-01-155B, 2-(5-(4-(3-Chlorophenyl)piperazin-1-ylsulfonyl)indolin-1-yl)-2-oxoacetic acid]  4.8 ± 2.8 µM
23. COc1cccc(N2CCN(S(=O)(=O)c3ccc4c(c3)CCN4C(=O)CCC(=O)O)CC2)c1 [XW2-038F, 4-(5-(4-(3-Methoxyphenyl)piperazin-1-ylsulfonyl)indolin-1-yl)-4-oxobutanoic acid]  4.7 ± 4.4 µM
24. CC(C)CC(NC(=O)N1CCc2cc(S(=O)(=O)N3CCN(c4cccc(Cl)c4)CC3)ccc21)C(=O)O (centres unmarked) [JHE-02-019A, 2-(5-(4-(3-Chlorophenyl)piperazin-1-ylsulfonyl)indoline-1-carboxamido)-4-methylpentanoic acid]  4.5 ± 3.5 µM
25. CC(C)C(NC(=O)N1CCc2cc(S(=O)(=O)N3CCN(c4cccc(Cl)c4)CC3)ccc21)C(=O)O (centres unmarked) [JHE-02-017C, 2-(5-(4-(3-Chlorophenyl)piperazin-1-ylsulfonyl)indoline-1-carboxamido)-3-methylbutanoic acid]  4.4 ± 1.9 µM
26. CC(C)c1ccc(NC(=O)N2CCc3cc(S(=O)(=O)N4CCN(c5cccc(Cl)c5)CC4)ccc32)cc1 [JHE-02-068B, 5-(4-(3-Chlorophenyl)piperazin-1-ylsulfonyl)-N-(4-isopropylphenyl)indoline-1-carboxamide]  4.1 ± 1 µM
27. O=C(Nc1ccccc1Cl)N1CCc2cc(S(=O)(=O)N3CCN(c4cccc(Cl)c4)CC3)ccc21 [JHE-02-065B, N-(2-Chlorophenyl)-5-(4-(3-chlorophenyl)piperazin-1-ylsulfonyl)indoline-1-carboxamide]  3.2 ± 0.5 µM
28. O=C(O)c1cccc(NC(=O)N2CCc3cc(S(=O)(=O)N4CCN(c5cccc(Cl)c5)CC4)ccc32)c1 [JHE-02-020B, 3-(5-(4-(3-Chlorophenyl)piperazin-1-ylsulfonyl)indoline-1-carboxamido)benzoic acid]  3 ± 0.8 µM
29. O=C(O)/C=C\C(=O)N1CCc2cc(S(=O)(=O)N3CCN(c4cccc(Cl)c4)CC3)ccc21 [JHE-01-129A, (Z)-4-(5-(4-(3-Chlorophenyl)piperazin-1-ylsulfonyl)indolin-1-yl)-4-oxobut-2-enoic acid]  2.8 ± 0.7 µM
30. CC1Cc2cc(S(=O)(=O)N3CCN(c4cccc(Cl)c4)CC3)ccc2N1C(=O)CCC(=O)O (centres unmarked) [JHE-02-119, 4-(5-(4-(3-Chlorophenyl)piperazin-1-ylsulfonyl)-2-methylindolin-1-yl)-4-oxobutanoic acid]  2.5 ± 0.5 µM

Biological target: T1, Shp2
Assay: not given
Details: background statement; cited from earlier work
Target sequence in this assay (Q06124 whole entry, species assumed): as the sequence (Q06124 whole entry) above

In the case of CCOc1ccc(NC(=O)CN2C(=O)/C(=C3\SC(=S)C(CCS(=O)(=O)O)C3=O)c3ccccc32)cc1 (centres unmarked) [CDL 4340-0580], the “inhibition of Shp2” value is given as “ability to inhibit Shp2”.

Biological target: Shp1 (Homo sapiens (Human), UniProt P29350)
Sequence (P29350 whole entry): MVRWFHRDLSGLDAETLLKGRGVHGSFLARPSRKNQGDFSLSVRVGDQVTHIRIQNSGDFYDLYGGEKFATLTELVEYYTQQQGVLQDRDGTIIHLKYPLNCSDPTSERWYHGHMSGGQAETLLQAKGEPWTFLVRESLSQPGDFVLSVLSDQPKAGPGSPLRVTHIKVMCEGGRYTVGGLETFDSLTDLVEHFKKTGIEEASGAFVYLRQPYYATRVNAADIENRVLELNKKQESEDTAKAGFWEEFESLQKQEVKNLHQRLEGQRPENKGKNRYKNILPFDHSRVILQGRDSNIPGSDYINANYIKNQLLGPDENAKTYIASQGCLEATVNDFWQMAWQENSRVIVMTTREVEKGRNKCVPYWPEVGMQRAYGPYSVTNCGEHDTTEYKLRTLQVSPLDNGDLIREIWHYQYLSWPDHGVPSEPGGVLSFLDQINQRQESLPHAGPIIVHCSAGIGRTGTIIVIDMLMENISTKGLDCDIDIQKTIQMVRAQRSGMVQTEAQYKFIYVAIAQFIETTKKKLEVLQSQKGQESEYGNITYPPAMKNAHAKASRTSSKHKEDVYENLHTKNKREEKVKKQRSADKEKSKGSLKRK
Assay: not given
Details: background statement, non-selective; cited from earlier work

In the case of CCOc1ccc(NC(=O)CN2C(=O)/C(=C3\SC(=S)C(CCS(=O)(=O)O)C3=O)c3ccccc32)cc1 (centres unmarked) [CDL 4340-0580], the “inhibition of Shp1” value is given as “also inhibit tumor suppressor Shp1”.
